For one data set, the system named is M2 macrophages. As to the kind of experiment: Apoptosis and caspase-3 expression in THP-1-derived macrophages. The class given is cell-based, human. Here is the method:
THP-1 cells were differentiated into macrophages by 24 h incubation with 100 nM PMA and polarized in M2 macrophages by incubation with 20 ng/ml of IL-4 and 20 ng/ml of IL-13 for 72 h. Polarized cells were treated with increasing concentrations of TAMpep and fragments of TAMpep (0.05-20 μM) for 24 h. Cell viability was analyzed using the CCK-8 assay: CCK-8 reagent (Enzo Life Sciences) was added to each well; incubation was continued for 2 hours, and absorbance was measured at 450 nm with a microplate reader (Molecular Devices).
THP-1 cells were seeded on cover glasses in 24-well plates and differentiated into M0, M1 and M2 macrophages. Cells were treated with 1 μM TAMpepK and MpepK for 1 h and incubated for 24 h after remove of peptides. Cells were washed, fixed with 4% paraformaldehyde for 10 minutes at […] and blocked with 0.1% normal goat serum for 1 hour. The cover glasses were then incubated with anti-caspase-3 antibody (1:50, rabbit polyclonal, Abcam) overnight at 4° C., and then washed and stained with Alexa 594-labelled goat anti-rabbit lgG (1:500, Invitrogen) at 37° C. for 1 hr. The cover glasses were mounted in Vectashield mounting medium (Vector Laboratories) with DAPI to visualize nuclei. Images photographed by fluorescence microscope (Leica).

Another data set has as its system M2-like TAMs. In words: FACS of tumor macrophages and CD8+ T cells in mouse model of melanoma. The class given is in vivo. Particulars: vs PBS group. From the text: (§1) BALB/c and C57BL/6 (B6) wild-type mice were purchased from DBL. For the subcutaneous tumor model of melanoma and prostate cancer, CT26 (3×10^5 cells/mouse), B16F10 (1×10^6 cells/mouse) and TRAMP-C2 cells (1×10^6 cells/mouse) were mixed with Matrigel matrix (Corning) and inoculated subcutaneously into the right flank of the mice, and 4T1 (1×10^5 cells/mouse) cells mixed with Matrigel matrix and inoculated into a 4th mammary fat pad of the mice. TAMpepK, and MpepK peptides (200 nmol/kg) were injected intraperitoneally every 3 days, beginning at day 7 after tumor inoculation, and tumor volume was measured by electronic caliper. All tumor tissues were harvested after the end of the study and tumor weight was measured by an electronic balance.
THP-1 cells were differentiated into macrophages by a 24 h incubation with 100 nM PMA and polarized in M2 macrophages by incubation with 20 ng/ml of IL-4 and 20 ng/ml of IL-13 for 72 h. Polarized cells were treated with 50 nM TAMpep and fragments of TAMpep or Mpep and alanine library of Mpep conjugated with FITC for 1 h. To test change of macrophage population in melanoma tissue, the single cells were isolated from tumor tissue through a 40 μm nylon mesh strainer after dissociation by DNase I (1 U/mL) and collagenase D (1 mg/ml). Cells were detected on BD FACSCalibur and BD FACSCantoII instruments and analyzed by FlowJo software.

The next data set deals with PC3 cells. As to the kind of experiment: Proliferation and migration of prostate cancer cells by conditioned medium of macrophages. The class given is cell-based, human. To be noted: conditioned media of M2 macrophages and M2-like TAMs pretreated with peptide. As to the method:
To obtain conditioned media of tumor (TCM), PC3 cells were seeded at 2×10^5 cells/well in culture medium in 24-well plates (Corning Inc). After 24 hours, the medium was changed to serum-free RPMI1640 medium and the cells were incubated for 24 hours. For conditioned media of macrophages, THP-1 cells were seeded at 2×10^5 cells/well in culture medium in 24-well plates (Corning Inc) and incubated with 100 nM PMA for 24 h. Cells were polarized into M0, M1, and M2 macrophages or TAM macrophages by TCM and changed to serum-free RPMI1640 medium. After 24 hours, the medium was changed to serum-free RPMI1640 medium and the cells were incubated for 24 hours. Supernatants were harvested and clarified with syringe filters (0.2 μm, Milipore). Supernatants of PC3 cells were named tumor-conditioned medium (TCM).
Migration of prostate cancer and melanoma cells was assessed with wound healing assays. PC3 and Sk-Mel-28 cells were seeded at 2×10^5 cells/well in 24-well plates and cultured in RPMI1640 with 10% FBS. When the cells reached confluence, they were wounded by scraping across the surface of the well with a sterile micropipette tip. […] Wound areas were measured with ImageJ software (NCI, Bethesda, Md., USA). The percent of each wounded area filled by cell migration was calculated as: (mean wounded breadth—mean remaining breadth)/mean wounded breadth×100.

For the next data set, the system named is TRAMP-C2 cells. As to the kind of experiment: Mouse model of prostate cancer (subcutaneous TRAMP-C2). The class given is in vivo.
Text: as §1
Cells were harvested and lysed in PRO-PREP protein extraction solution (iNtRON, Bio Inc, Sungnam, Korea). Protein concentrations were measured with a Bradford Protein Assay Reagent kit (Bio-Rad, Richmond, CA, USA). Proteins were fractionated by 10% SDS-polyacrylamide gels electrophoresis (PAGE), and transferred onto polyvinylidene difluoride (PVDF) membranes. These were incubated with anti-arginase 1, anti-CD206, anti-caspase 3, anti-E-cadherin, anti-fibronectin, anti-PCNA, anti-TGF-β, anti-MMP9, and anti-β-actin Ab as primary antibodies. Goat anti-rabbit horseradish peroxidase-conjugated IgG or goat anti-mouse horseradish peroxidase-conjugated IgG (Abcam, Cambridge, Mass., USA) served as secondary antibodies. Protein bands were detected with a chemiluminescence reagent kit (SurModics).

The next data set relates to CT26. As to the kind of experiment: Colon cancer model (CT26). The class given is in vivo, mouse. To be noted: vs PBS group.
Text: as §1

The test system of another data set is 4T1. As to the kind of experiment: 4th mammary orthotopic mouse model of breast cancer (4T1). It is filed as in vivo.
Text: as §1
Total RNA was extracted using Easy-Blue reagent. Concentrations of RNA were determined and quantified by measuring absorbance at 260 and 280 nm with a spectrophotometer. Complementary DNA (cDNA) was synthesized from total RNA using a Maxime RT PreMix kit (iNtRON). Real-time PCR analysis was performed with SYBR Green Master Mix. PCR conditions were forty-five cycles at 95° C. for 5 min, followed by 95° C. for 10 sec, 60° C. for 10 sec and 72° C. for 10 sec. mRNA expression were quantified in triplicate. Data were measured with CFX Software (Bio-Rad). GAPDH and β-actin were used as internal controls.

The mark [1] stands for this setting: TRAMP-C2 in C57BL6J mice, i.p. every 3 days, vs PBS group.

`CC[C@H](C)[C@H](NC(=O)[C@H](CC(C)C)NC(=O)[C@H](C)NC(=O)[C@@H]1CCCN1C(=O)[C@H](CC(C)C)NC(=O)CNC(=O)[C@@H](NC(=O)[C@@H](NC(=O)[C@H](CC(C)C)NC(=O)[C@@H](NC(C)=O)C(C)C)[C@@H](C)O)[C@@H](C)O)C(=O)N[C@@H](CO)C(=O)N[C@@H](Cc1c[nH]c2ccccc12)C(=O)N[C@H](C(=O)N[C@@H](CCCCN)C(=O)N[C@@H](CCCNC(=N)N)C(=O)N[C@@H](CCCCN)C(=O)N[C@@H](CCCNC(=N)N)C(=O)N[C@@H](CCC(N)=O)C(=O)N[C@@H](CCC(N)=O)C(=O)NCC(=O)NCC(=O)NCC(=O)NCC(=O)N[C@@H](CO)C(=O)N[C@H](CCCCN)C(=O)N[C@H](CC(C)C)C(=O)N[C@H](C)C(=O)N[C@H](CCCCN)C(=O)N[C@H](CC(C)C)C(=O)N[C@H](C)C(=O)N[C@H](CCCCN)C(=O)N[C@H](CCCCN)C(=O)N[C@H](CC(C)C)C(=O)N[C@H](C)C(=O)N[C@H](CCCCN)C(=O)N[C@H](CC(C)C)C(=O)N[C@H](C)C(=O)N[C@H](CCCCN)C(=O)O)[C@@H](C)CC` [MpepK]: the “expression of caspase-3 in M2 macrophages compared to other subtype macrophages” value in the data set on M2 macrophages (1 μM, 1 h, then 24 h) is on record as “increased”. The “apoptosis in M2 macrophages compared to M0 and M1 macrophages” value with M2 macrophages (0.01-10 μM) was “induced apoptosis”. Further, in the data set with M2-like TAMs (melanoma model), the “exhaustion markers, such as PD-1 and LAGS, in CD8+ T cells” value was “significantly reduced”. In addition, in the data set on M2-like TAMs (melanoma tumor tissue), the “M1-like TAMs (F4/80+ and CD86+ cells)” value is on record as “no change”; the M1/M2 ratio entry is “significantly increased”; the “M2-like TAMs (F4.80+ and CD206+ cells)” value is on record as “reduced”. In the data set on PC3 cells, the “proliferation of PC3 cells” value is “significantly reduced”. In addition, the “migration of PC3 cells” value in the data set with PC3 cells (wound healing) is listed as “significantly reduced”. For the same molecule, in the data set with TRAMP-C2 cells (setting [1]), the tumor volume entry is “significantly reduced” and the tumor weight result was “significantly reduced”. For the same molecule, the “body weight of mice” value in the data set with TRAMP-C2 cells (TRAMP-C2 prostate cancer model) is listed as “did not significantly change”. Also, in the data set with TRAMP-C2 cells (prostate cancer model), the “E-cadherin (epithelial cell marker) in tumor tissues” value is “increased”; the “expression of PCNA (proliferative marker) in tumor tissues” value is reported as “reduced”; the “expression of TGF-β and MMP9 in tumor tissues” value is “reduced”; the “vimentin and fibronectin (mesenchymal marker) in tumor tissues” value is on record as “reduced”. Moreover, in the data set with CT26, the tumor volume entry is given as “significantly reduced” and the tumor weight entry was “not significantly changed”. Besides, the “gene expression of arginase 1 (M2 macrophage marker)” value with 4T1 (compared to PBS) was “significantly reduced”. Moreover, in the data set with 4T1 (vs PBS group), the lung metastasis result was “decreased”, the tumor volume result is listed as “decreased” and the tumor weight entry is “decreased”.

For the origin of these results see patent US20220354957A1, “PEPTIDES TARGETING MACROPHAGES, AND CONJUGATES, COMPOSITIONS, AND USES THEREOF” (Twinpig Biolab, Inc., priority 2021, published 2022).
